# Data reported in ChEMBL document CHEMBL5136996, “Semisynthesis and Non-Small-Cell Lung Cancer Cytotoxicity Evaluation of Germacrane-Type Sesquiterpene Lactones from Elephantopus scaber” (J Nat Prod, 2022).
# The source made the active and inactive calls. The calls are words filed in the database; no cut-off is given here.
# Experiments:
# NCI-H460 = assay: Cytotoxicity against human NCI-H460 cells assessed as reduction in cell viability incubated for 48 hrs by MTT assay; format: functional, cell-based; conditions: NCI-H460, 48 h
# A549 [1] = assay: Cytotoxicity against human A549 cells assessed as reduction in cell viability incubated for 48 hrs by MTT assay; format: functional, cell-based; conditions: A549, 48 h
# A549 [2] = assay: Induction of apoptosis in human A549 cells assessed as late apoptotic cells at 10 uM incubated for 48 hrs by AnnexinV-FITC/PI staining based flow cytometry (reference value: 1.58 to 2.23%); format: functional
# A549 [3] = assay: Induction of cell cycle arrest in human A549 cells assessed as accumulation of cells at G2/M phase incubated for 48 hrs by PI staining based flow cytometry (reference value: 9.7 to 17.2%); format: functional
# A549 [4] = assay: Induction of apoptosis in human A549 cells assessed as necrotic cells at 3 uM incubated for 48 hrs by AnnexinV-FITC/PI staining based flow cytometry (reference value: 2.23 to 4.25%); format: functional
# A549 [5] = assay: Induction of apoptosis in human A549 cells assessed as viable cells at 10 uM incubated for 48 hrs by AnnexinV-FITC/PI staining based flow cytometry (reference value: 91.5 to 92.9%); format: functional; conditions: read-out: Activity
# A549 [6] = assay: Induction of apoptosis in human A549 cells assessed as necrotic cells at 10 uM incubated for 48 hrs by AnnexinV-FITC/PI staining based flow cytometry (reference value: 2.23 to 4.25%); format: functional
# A549 [7] = assay: Induction of apoptosis in human A549 cells assessed as viable cells at 3 uM incubated for 48 hrs by AnnexinV-FITC/PI staining based flow cytometry (reference value: 91.5 to 92.9%); format: functional; conditions: read-out: Activity
# A549 [8] = assay: Induction of apoptosis in human A549 cells assessed as early apoptotic cells at 3 uM incubated for 48 hrs by AnnexinV-FITC/PI staining based flow cytometry (reference value: 2.07 to 3.24%); format: functional
# A549 [9] = assay: Induction of apoptosis in human A549 cells assessed as late apoptotic cells at 3 uM incubated for 48 hrs by AnnexinV-FITC/PI staining based flow cytometry (reference value: 1.58 to 2.23%); format: functional
# A549 [10] = assay: Induction of apoptosis in human A549 cells assessed as increase in cleaved caspase-3 expression level at 3 to 10 uM incubated for 48 hrs by western blot analysis; format: functional, cell-based; conditions: dose 3-10 µM
# A549 [11] = assay: Induction of intracellular ROS generation in human A549 cells incubated for 48 hrs by H2DCF-DA staining based flow cytometry; format: functional, cell-based; conditions: dose 3-10 µM, DDE = dose-dependent effect
# [12] = Cytotoxicity against rat Primary hepatocytes assessed as cell viability at 25 uM incubated for 12 hrs; format: toxicity, cell-based, Hepatocyte; conditions: read-out: Activity
# A549 [13] = assay: Induction of apoptosis in human A549 cells assessed as decrease in mitochondrial membrane potential by measuring reduction in ratio of red to green fluorescence intensity at 3 to 10 uM incubated for 48 hrs by JC-1 staining based flow cytometry; format: functional, cell-based; conditions: dose 3-10 µM
# A549 [14] = assay: Induction of apoptosis in human A549 cells assessed as increase in cleaved caspase-9 expression level at 3 to 10 uM incubated for 48 hrs by western blot analysis; format: functional, cell-based; conditions: dose 3-10 µM
# A549 [15] = assay: Induction of apoptosis in human A549 cells assessed as early apoptotic cells at 10 uM incubated for 48 hrs by AnnexinV-FITC/PI staining based flow cytometry (reference value: 2.07 to 3.24%); format: functional
Structure (SMILES),IC50 (NCI-H460),IC50 (A549 [1]),also measured
C=C1C(=O)O[C@H]2CC3=C[C@H](C/C(C)=C/[C@@H](OC(=O)C4(NC(=O)OCc5ccccc5)CC4)[C@H]12)OC3=O,3 µM,5.8 µM,–
C=C1C(=O)O[C@H]2CC3=C[C@H](C/C(C)=C/[C@@H](OC(=O)c4ccc(C(F)(F)F)cc4)[C@H]12)OC3=O,> 10 µM,> 10 µM,–
C=C1C(=O)O[C@H]2CC3=C[C@H](C/C(C)=C/[C@@H](OC(=O)CCCCCCC(=O)O[C@@H]4/C=C(\C)C[C@H]5C=C(C[C@@H]6OC(=O)C(=C)[C@H]64)C(=O)O5)[C@H]12)OC3=O,3.2 µM,0.7 µM,"Activity (A549 [2]): 44.1%; Activity (A549 [3]): 62.4%; Activity (A549 [4]): 0.14%; viability at 10 µM (A549 [5]): 14.6%; Activity (A549 [6]): 10.4%; viability at 3 µM (A549 [7]): 63.7%; Activity (A549 [8]): 35.5%; Activity (A549 [9]): 0.7%; Activity (A549 [10]): Active; Activity (A549 [11]): Dde; viability at 12 h, 25 µM [12]: 59.2%; Activity (A549 [13]): Active; Activity (A549 [14]): Active; Activity (A549 [15]): 30.9%"
C=C1C(=O)O[C@@H]2/C=C(\C)C[C@H]3C=C(C[C@H](OC(=O)/C(C)=C\C)[C@@H]12)C(=O)O3,> 10 µM,> 10 µM,–
C=C1C(=O)O[C@H]2CC3=C[C@H](C/C(C)=C/[C@@H](OC(=O)CC(C)C)[C@H]12)OC3=O,3.8 µM,2.5 µM,–
C=C1C(=O)O[C@H]2CC3=C[C@H](C/C(C)=C/[C@@H](OC(=O)c4ccc([N+](=O)[O-])cc4)[C@H]12)OC3=O,> 10 µM,> 10 µM,–
C=C1C(=O)O[C@H]2CC3=C[C@H](C/C(C)=C/[C@@H](OC(=O)/C=C/c4ccc(N(C)C)cc4)[C@H]12)OC3=O,1.3 µM,> 10 µM,–
C=C1C(=O)O[C@H]2CC3=C[C@H](C/C(C)=C/[C@@H](OC(=O)C4CCC(F)(F)CC4)[C@H]12)OC3=O,> 10 µM,6.4 µM,–
C=C1C(=O)O[C@H]2CC3=C[C@H](C/C(C)=C/[C@@H](OC(=O)c4ccc(-c5ccccc5)cc4)[C@H]12)OC3=O,3.5 µM,4.6 µM,–
C=C1C(=O)O[C@H]2CC3=C[C@H](C/C(C)=C/[C@@H](OC(=O)/C=C\c4ccc5c(c4)OCO5)[C@H]12)OC3=O,> 10 µM,6.1 µM,–
C=C1C(=O)O[C@H]2CC3=C[C@H](C/C(C)=C/[C@@H](OC(=O)/C=C/c4ccccc4)[C@H]12)OC3=O,> 10 µM,4.8 µM,–
C=C1C(=O)O[C@H]2CC3=C[C@H](C/C(C)=C/[C@@H](OC(=O)CCCCC)[C@H]12)OC3=O,5.9 µM,> 10 µM,–
C=C1C(=O)O[C@H]2CC3=C[C@H](C/C(C)=C/[C@@H](OC(=O)/C=C/c4cccs4)[C@H]12)OC3=O,2.9 µM,4.3 µM,"Activity (A549 [2]): 23.9%; Activity (A549 [3]): 32.6%; Activity (A549 [4]): 0.53%; viability at 10 µM (A549 [5]): 38.2%; Activity (A549 [6]): 10.6%; viability at 3 µM (A549 [7]): 83.2%; Activity (A549 [8]): 14.8%; Activity (A549 [9]): 1.45%; Activity (A549 [10]): Active; Activity (A549 [11]): Dde; viability at 12 h, 25 µM [12]: 96.7%; Activity (A549 [13]): Active; Activity (A549 [14]): Active; Activity (A549 [15]): 27.3%"
CO[C@H]1C(=O)O[C@H]2CC3=C[C@H](C/C(C)=C/[C@@H](O)[C@@H]21)OC3=O,> 10 µM,> 10 µM,–
C=C1C(=O)O[C@H]2CC3=C[C@H](C/C(C)=C/[C@@H](OC(=O)/C=C/c4ccc(C(F)(F)F)cc4)[C@H]12)OC3=O,1.4 µM,5.9 µM,–
C=C1C(=O)O[C@H]2CC3=C[C@H](C/C(C)=C/[C@@H](OC(=O)/C=C/c4ccncc4)[C@H]12)OC3=O,2.1 µM,4 µM,–
C=C1C(=O)O[C@H]2CC3=C[C@H](C/C(C)=C/[C@@H](OC(=O)c4ccc(C(=O)O[C@@H]5/C=C(\C)C[C@H]6C=C(C[C@@H]7OC(=O)C(=C)[C@H]75)C(=O)O6)cc4)[C@H]12)OC3=O,0.7 µM,1.5 µM,–

Structure (SMILES),IC50 (NCI-H460),IC50 (A549 [1]),also measured
C=C1C(=O)O[C@H]2CC3=C[C@H](C/C(C)=C/[C@@H](OC(=O)CCCC(=O)O[C@@H]4/C=C(\C)C[C@H]5C=C(C[C@@H]6OC(=O)C(=C)[C@H]64)C(=O)O5)[C@H]12)OC3=O,> 10 µM,5.6 µM,–
C=C1C(=O)O[C@H]2CC3=C[C@H](C/C(C)=C/[C@@H](OC(=O)c4ccncc4)[C@H]12)OC3=O,5.6 µM,> 10 µM,–
C=C1C(=O)O[C@H]2CC3=C[C@H](C/C(C)=C/[C@@H](OC(=O)c4ccc(C(C)=O)cc4)[C@H]12)OC3=O,2.2 µM,2.3 µM,–
C=C1C(=O)O[C@H]2CC3=C[C@H](C/C(C)=C/[C@@H](OC(=O)C(C)(C)CC)[C@H]12)OC3=O,6.1 µM,2.2 µM,–
C=C1C(=O)O[C@H]2CC3=C[C@H](C/C(C)=C/[C@@H](OC(=O)CCCCBr)[C@H]12)OC3=O,> 10 µM,> 10 µM,–
C=C1C(=O)O[C@H]2CC3=C[C@H](C/C(C)=C/[C@@H](OC(=O)CCSSCCC(=O)O[C@@H]4/C=C(\C)C[C@H]5C=C(C[C@@H]6OC(=O)C(=C)[C@H]64)C(=O)O5)[C@H]12)OC3=O,7.8 µM,3.1 µM,–
C=C1C(=O)O[C@H]2CC3=C[C@H](C/C(C)=C/[C@@H](OC(=O)c4ccc(C(=O)O[C@@H]5/C=C(\C)C[C@H]6C=C(C[C@@H]7OC(=O)C(=C)[C@H]75)C(=O)O6)s4)[C@H]12)OC3=O,5.8 µM,3.6 µM,–
C=C1C(=O)O[C@@H]2C3O[C@]3(C)CC/C=C(\C)CC[C@@H]12 (stereo partly specified),9.6 µM,> 10 µM,–
C=C1C(=O)O[C@H]2CC3=C[C@H](C/C(C)=C/[C@@H](OC(=O)C4CC4)[C@H]12)OC3=O,3 µM,3.2 µM,–
C=C1C(=O)O[C@H]2CC3=C[C@H](C/C(C)=C/[C@@H](O)[C@H]12)OC3=O,> 10 µM,> 10 µM,–
C=C1C(=O)O[C@H]2CC3=C[C@H](C/C(C)=C/[C@@H](OC(=O)/C=C/c4ccc5c(c4)OCO5)[C@H]12)OC3=O,9.3 µM,4.6 µM,–
C=C1C(=O)O[C@H]2CC3=C[C@H](C/C(C)=C/[C@@H](OC(=O)CCC(=O)O[C@@H]4/C=C(\C)C[C@H]5C=C(C[C@@H]6OC(=O)C(=C)[C@H]64)C(=O)O5)[C@H]12)OC3=O,> 10 µM,> 10 µM,–
C=C1C(=O)O[C@H]2CC3=C[C@H](C/C(C)=C/[C@@H](OC(=O)CCl)[C@H]12)OC3=O,> 10 µM,> 10 µM,–
C=C1C(=O)O[C@H]2CC3=C[C@H](C/C(C)=C/[C@@H](OC(=O)/C=C/c4cccc(OC)c4)[C@H]12)OC3=O,> 10 µM,6.2 µM,–
C=C1C(=O)O[C@H]2CC3=C[C@H](C/C(C)=C/[C@@H](OC(=O)C45CCC(C)(C(=O)O4)C5(C)C)[C@H]12)OC3=O,2 µM,3.4 µM,–
C=C1C(=O)O[C@H]2CC3=C[C@H](C/C(C)=C/[C@@H](OC(=O)CCCCC(=O)O[C@@H]4/C=C(\C)C[C@H]5C=C(C[C@@H]6OC(=O)C(=C)[C@H]64)C(=O)O5)[C@H]12)OC3=O,8.1 µM,2.1 µM,–
C=C1C(=O)O[C@H]2CC3=C[C@H](C/C(C)=C/[C@@H](OC(=O)CC4CCCCC4)[C@H]12)OC3=O,2 µM,6.9 µM,–
